{
  "source": "patent US11225499B2",
  "about": "“Chiral platinum complex, method for preparing the same, and method for using the same” (Hefei University of Technology, priority 2019, dated 2022)",
  "key": {"[1]": {"test_system": "Human oral cancer cells KB-VIN", "assay": "Anti-cancer activity, KB-VIN cells", "format": "cell-based", "conditions": "KB-VIn (anti-drug-resistant nasopharyngeal carcinoma)"}, "[2]": {"test_system": "KB (nasopharyngeal carcinoma)"}},
  "data": [
    {"substance": "[1,4-(4R)-diphenyl-2-oxazolinyl benzene] platinum nitrate complex [Platinum complex (I)]", "values": [
      {"measurement": "inhibitory activity ED50", "setting": "[1]", "value": "< 10.0", "unit": "µg/mL"},
      {"measurement": "inhibitory activity ED50", "setting": "[2]", "value": "< 10.0", "unit": "µg/mL"}
    ]}
  ]
}
